From patent publication US12465580B2, “Substituted fatty acids for treating non-alcoholic steatohepatitis” (BASF AS, priority 2015, dated 2025)

Tests used:
[1] = test system: APOE*3Leiden.CETP double transgenic mice; test: Total plasma cholesterol in diet induced NAFLD/NASH mouse model; format: in vivo
Procedure: (§1) The APOE*3Leiden.CETP double transgenic mouse is expressing a variant of the human apolipoprotein E3 (APOE3), the APOE*3Leiden, in addition to the human apolipoprotein C1 (APOC1) and CETP. […] By increasing the cholesterol content of the diet in this model, all the characteristics of human NASH develop.
(§2) Studies were performed in APOE*3Leiden.CETP mice placed on a high fat diet (24% fat w/w) with varying cholesterol content (0.25-1% cholesterol w/w). In one study (using 1% cholesterol w/w), after a 3 weeks run-in period 17 (20%) low-responder mice were removed from the study and the remaining 65 mice were sub-divided into groups of 12 mice each (+5 in the control group), matched for plasma cholesterol, triglycerides, blood glucose, body weight and age (t=0) and treatment was started. The mice received a daily gavage between 07 hr00 and 10 hr00 with either Compound N, Reference A or control (corn oil). After 4, 8, 12, 16 and 20 weeks of treatment blood samples were taken after a 5 hour fasting period (also 5 hours after compound or vehicle administration). Plasma cholesterol and triglycerides were measured. After 14 weeks of treatment 5 representative mice from the control group were sacrificed in order to assess the NASH development and to determine the termination of the study. After 20 weeks of treatment mice were sacrificed by CO2 asphyxiation, heparin heart blood was sampled and tissues were collected. Hepatic steatosis, inflammation and collagen content were analyzed.
(§3) A further study was performed in APOE*3Leiden.CETP mice with a 4-week active treatment arm in mice placed on a high fat diet (24% fat and 0.25% cholesterol diet, both w/w) to collect additional metabolic data.
Plasma HDL cholesterol values were adoubled (p<0.001, data not shown), underlying the fact that the reduction in plasma cholesterol was specific to the atherogenic apoB particle associated cholesterol fraction.

[2] = test system: APOE*3Leiden.CETP double transgenic mice; test: Hepatic fibrosis (collagen content) in diet induced NAFLD/NASH mouse model; format: in vivo; details: for Fibrosis, Hydroxyprolin/Prolin, Mean ± SD: ApoE*3L-CETP double transgenic mice, hepatic collagen content, after 20 weeks of treatment
Procedure: as §1, §2

[3] = test system: APOE*3Leiden.CETP double transgenic mice; details: earlier study; cited from earlier work
[4] = test system: APOE*3Leiden.CETP double transgenic mice; test: Hepatic inflammation (number of foci, inflammation score) in diet induced NAFLD/NASH mouse model; format: in vivo; details: for Inflammation Score (0-3), Mean ± SD / Inflammation, Number of foci, Mean ± SD: ApoE*3L-CETP mice, high fat/cholesterol diet, liver after 20 weeks of treatment
Procedure: as §1, §2

[5] = test system: APOE*3Leiden.CETP double transgenic mice; test: Fecal bile acid content in diet induced NAFLD/NASH mouse model; format: in vivo; details: for Total bile acids (fecal), AVG ± SD: ApoE*3L-CETP double transgenic mice, feces
Procedure: as §1, §2, §3

[6] = test system: APOE*3Leiden.CETP double transgenic mice; test: Hepatic cholesterol content (liver lipids) in diet induced NAFLD/NASH mouse model; format: in vivo; details: for Effect on hepatic cholesterol ester vs control: Compound N p<0.001, Reference A p<0.05; for Liver lipids, Cholesterol ester (CE in FIG. 1), AVG ± SD / Liver lipids, Free cholesterol (FC in FIG. 1), AVG ± SD: ApoE*3L-CETP mice, high fat diet, 0.25% cholesterol w/w, daily gavage
Procedure: as §1, §2, §3
A mild decrease in cholesterol ester was also observed with Reference A (p<0.05). A 43% reduction in total hepatic cholesterol (statistics not performed).

[7] = test system: APOE*3Leiden.CETP double transgenic mice; test: Hepatic steatosis (macrovesicular and microvesicular) in diet induced NAFLD/NASH mouse model; format: in vivo; details: for Steatosis as % of the liver, Macrovesicular, Mean ± SD / Steatosis as % of the liver, Microvesicular, Mean ± SD: ApoE*3L-CETP mice, high fat/cholesterol diet, liver after 20 weeks of treatment; for Effect on macrovesicular steatosis vs control: Compound N p<0.001 vs. control
Procedure: as §1, §2

| Compound | Fibrosis, Hydroxyprolin/Prolin, Mean ± SD [2] | Effect on plasma cholesterol, previously shown [3] | Inflammation Score (0-3), Mean ± SD [4] | Inflammation, Number of foci, Mean ± SD [4] | Total bile acids (fecal), AVG ± SD [5] [μmol/100 gr mouse/day] | Effect on hepatic cholesterol ester vs control ([6]; 0.25% cholesterol diet w/w) | Liver lipids, Cholesterol ester (CE in FIG. 1), AVG ± SD [6] [μg lipid/mg liver protein] | Liver lipids, Free cholesterol (FC in FIG. 1), AVG ± SD [6] [μg lipid/mg liver protein] | Steatosis as % of the liver, Macrovesicular, Mean ± SD [7] [%] | Steatosis as % of the liver, Microvesicular, Mean ± SD [7] [%] | Effect on macrovesicular steatosis vs control [7] | also measured |
| --- | --- | --- | --- | --- | --- | --- | --- | --- | --- | --- | --- | --- |
| CC/C=C\C/C=C\C/C=C\C/C=C\C/C=C\CCCCSC(CC)(CC)C(=O)O [Compound N, 2-ethyl-2-((5Z,8Z,11Z,14Z,17Z)-icosa-5,8,11,14,17-pentaenylthio)butanoic Acid] | 0.027 ± 0.007 | significantly decrease plasma cholesterol | 0.6 ± 0.8 | 0.6 ± 0.6 | 3.2 ± 0.6 | significant decrease | 10.6 ± 2.1 | 9.8 ± 1.2 | 1.1 ± 1.0 | 57.9 ± 25.4 | abolished macrovesicular steatosis | Reduction in total plasma cholesterol ([1]; after 4 weeks versus control, p<0.001): 52%; Plasma HDL cholesterol values ([1]; p<0.001, data not shown): doubled; Total plasma cholesterol, t = 0, AVG ± SD ([1]; t = 0 weeks (baseline, start of treatment)): 6.4 ± 1.1 mM; Total plasma cholesterol, t = 2, AVG ± SD ([1]; t = 2 weeks of treatment): 4.2 ± 0.7 mM; Total plasma cholesterol, t = 4, AVG ± SD ([1]; t = 4 weeks of treatment): 4.7 ± 1.3 mM; Reduction in hepatic collagen content ([2]; compared to control animals, p<0.005): 30%; Effect on total inflammation score ([4]; vs control): significant reduction; Reduction in the number of inflammatory foci ([4]; vs control, p<0.001): approximately 85%; Reduction in fecal bile acid excretion ([5]; vs control, p=0.006): 50%; Reduction in total hepatic cholesterol ([6]; 0.25% cholesterol diet w/w, statistics not performed): 43% |
| CC/C=C\C/C=C\C/C=C\C/C=C\C/C=C\CCCCOC(CC)C(=O)O (stereo not drawn) [Reference A, 2-((5Z,8Z,11Z,14Z,17Z)-icosa-5,8,11,14,17-pentaenyloxy)butanoic acid, reference compound] | – | significantly decrease plasma cholesterol | 1.9 ± 1.2 | 1.9 ± 1.3 | 4.0 ± 1.2 | mild decrease | 17.0 ± 3.7 | 9.5 ± 1.3 | 21.2 ± 15.0 | 34.6 ± 11.8 | No significant effect | Effect on inflammatory foci vs control ([4]; Reference A p<0.01): milder reduction; Effect on fecal bile acid excretion vs control ([5]; p<0.05 vs. control): milder yet significant decrease |
| CN(CCOc1ccc(CC2SC(=O)NC2=O)cc1)c1ccccn1 (stereo not drawn) [Rosiglitazone] | 0.036 ± 0.007 | – | 1.7 ± 1.2 | 1.6 ± 1.6 | – | – | – | – | 14.3 ± 20.2 | 52.5 ± 18.4 | No significant effect | – |
